Measurements published in US5270047A, “Local delivery of dipyridamole for the treatment of proliferative diseases” (priority 1991, dated 1993).
“Also recorded” adds a separate entry of the source.

Legend:
[1] = system: Smooth muscle cells from rabbit aorta; assay: Effect of serum concentration on inhibition of PDGF-induced DNA synthesis (3H thymidine incorporation) by dipyridamole; format: cell-based; conditions: for inhibition at 0.04 µg/mL / inhibition at 0.08 µg/mL / inhibition at 0.15 µg/mL / inhibition at 0.3 µg/mL / inhibition at 0.6 µg/mL / inhibition at 1.2 µg/mL / inhibition at 2.5 µg/mL: Oryctolagus cuniculus, 24 h, 40 ng/ml PDGF; for inhibition at 0.04 µg/mL: dipyridamole 0.04 μg/ml; for inhibition at 0.08 µg/mL: dipyridamole 0.08 μg/ml; for inhibition at 0.15 µg/mL: dipyridamole 0.15 μg/ml; for inhibition at 0.3 µg/mL: dipyridamole 0.3 μg/ml; for inhibition at 0.6 µg/mL: dipyridamole 0.6 μg/ml; for inhibition at 1.2 µg/mL: dipyridamole 1.2 μg/ml; for inhibition at 2.5 µg/mL: dipyridamole 2.5 μg/ml
Method: Serum reduces the effectiveness of systemically administered dipyridamole as an inhibitor of cell proliferation. […] Growth arrested, confluent cultures in 96 well microtiter plates were incubated in medium containing 1%, 5% or 20% serum (Hyclone Laboratories, Logan, Utah), 2 mM L-glutamine, 100 U/ml penicillin, 100 μg/ml streptomycin, 40 ng/ml PDGF (Genzyme, Cambridge, Mass.), 1 μci/ml ^3 H thymidine (DuPont, Boston, Mass.) and indicated concentrations of dipyridamole (Sigma Chemical, St. Louis, Mo.). Cells were incubated at 37° C. for 24 hours under 5% CO2 /95% air. At the end of 24 hours, cells were fixed in methanol and DNA synthesis was determined by ^3 H thymidine incorporation as described in Bonin et al., Exp. Cell Res. 181, 475-482 (1989).

[2] = system: balloon-injured left common carotid arteries; assay: Effect of local adventitial dipyridamole upon intimal thickening after balloon injury of the left common carotid artery; format: in vivo, male Sprague-Dawley rats; conditions: 600 μg/day, fourteen days
Method: Balloon injury to the left common carotid arteries of male Sprague-Dawley rats (350-400 g) was accomplished by three passes of an inflated 2F Fogarty balloon catheter as described by Clowes et al., Lab Invest. 49:208-215 (1983). Animals were anesthetized with Ketamine (80 mg/kg, intramuscular) and Rompun (16 mg/kg, intramuscular). Entry of the balloon catheter to the left common carotid artery was made via a nick in the external carotid artery, which was tied off at the end of the surgical procedure. Continuous local delivery of dipyridamole was accomplished by means of a minosmotic pump implanted subcutaneously in the back of the rat. […]
Fourteen days post surgery, animals were anesthetized (vide supra) and perfused through the abdominal aorta in a retrograde manner at physiological pressure with a zinc formalin fixative (Anatech LTD., Battle Creek, Mich.). […] Three adjacent cross sections (5 μm thick) of each vessel were cut, stained with hematoxylin and eosin, and cross-sectional intimal areas quantitated with an image analyzer (Quantimet 970, Cambridge Inst., Cambridge, UK).
The difference between intimal areas of drug-treated vs. control groups were analyzed for statistical significance using Student's t-test as described in Tallarida et al., Manual of Pharmacologic Calculations with Computer Programs, Springer-Verlag, New York, 1981, p. […]

Balb/c3T3 fibroblasts = assay: Inhibition of fibroblast growth (Coulter cell counting); format: cell-based
Method: Cells were then transferred to above medium containing indicated concentrations of dipyridamole. After three days cell growth was determined by counting using a ZM Coulter counter (Coulter Diagnostic, Inc.).

[3] = system: Smooth muscle cells from rabbit aorta; assay: Inhibition of DNA synthesis (3H thymidine incorporation) induced by PDGF, FGF or EGF; format: cell-based; conditions: for inhibition at 0.08 µg/mL / inhibition at 0.15 µg/mL / inhibition at 0.32 µg/mL / inhibition at 0.64 µg/mL / inhibition at 1.2 µg/mL / inhibition at 2.5 µg/mL: Oryctolagus cuniculus, Platelet, 24 h, 1% platelet poor plasma; for inhibition at 0.08 µg/mL: dipyridamole 0.08 μg/ml; for inhibition at 0.15 µg/mL: dipyridamole 0.15 μg/ml; for inhibition at 0.32 µg/mL: dipyridamole 0.32 μg/ml; for inhibition at 0.64 µg/mL: dipyridamole 0.64 μg/ml; for inhibition at 1.2 µg/mL: dipyridamole 1.2 μg/ml; for inhibition at 2.5 µg/mL: dipyridamole 2.5 μg/ml
Method: Dipyridamole inhibits smooth muscle cell proliferation induced by multiple growth factors. Smooth muscle cells from rabbit aorta (derived by explant method) were seeded in 96 well tissue culture plates in DMEM containing 10% fetal bovine serum, 2 mM L-glutamine, 100 U/ml penicillin and 100 μg/ml streptomycin. Growth arrested, confluent cultures in 96 well microtiter plates were incubated in medium containing 1% platelet poor plasma, 2 mM L-glutanime, 100 U/ml penicillin, 100 μg/ml streptomycin, 20 ng/ml PDGF, 3 ng/ml EGF (Genzyme), 3 ng/ml FGF (Genzyme), 1 μci/ml ^3 H thymidine and indicated concentrations of dipyridamole. Cells were incubated at 37° C. for 24 hours under 5% CO2 /95% air. At the end of 24 hours, cells were fixed in methanol. DNA synthesis was determined by ^3 H thymidine incorporation as previously described.

vascular restenosis = conditions: systemic administration; patients; cited from earlier work

Compound: OCCN(CCO)c1nc(N2CCCCC2)c2nc(N(CCO)CCO)nc(N3CCCCC3)c2n1 [Dipyridamole, 2,6-bis(diethanolamino)-4,8-dipiperidinopyrimido[5,4-d]pyrimidine]
- effect of serum on antiproliferative activity ([1]; 1%, 5% or 20% serum): increasing concentrations of serum attenuate the growth inhibitory effects of dipyridamole
- inhibition at 0.04 µg/mL ([1]; 1% serum): 59%
- inhibition at 0.08 µg/mL ([1]; 1% serum): 70%
- inhibition at 0.15 µg/mL ([1]; 1% serum): 79%
- inhibition at 0.3 µg/mL ([1]; 1% serum): 80%
- inhibition at 0.6 µg/mL ([1]; 1% serum): 86%
- inhibition at 1.2 µg/mL ([1]; 1% serum): 90%
- inhibition at 2.5 µg/mL ([1]; 1% serum): 93%
- inhibition at 0.04 µg/mL ([1]; 5% serum): 52%
- inhibition at 0.08 µg/mL ([1]; 5% serum): 53%
- inhibition at 0.15 µg/mL ([1]; 5% serum): 60%
- inhibition at 0.3 µg/mL ([1]; 5% serum): 71%
- inhibition at 0.6 µg/mL ([1]; 5% serum): 80%
- inhibition at 1.2 µg/mL ([1]; 5% serum): 87%
- inhibition at 2.5 µg/mL ([1]; 5% serum): 92%
- inhibition at 0.04 µg/mL ([1]; 20% serum): 6%
- inhibition at 0.08 µg/mL ([1]; 20% serum): 0%
- inhibition at 0.15 µg/mL ([1]; 20% serum): 33%
- inhibition at 0.3 µg/mL ([1]; 20% serum): 38%
- inhibition at 0.6 µg/mL ([1]; 20% serum): 60%
- inhibition at 1.2 µg/mL ([1]; 20% serum): 74%
- inhibition at 2.5 µg/mL ([1]; 20% serum): 77%
- Area of Intimal Thickening (% of control) ([2]; P < 0.05 vs. control): 67.4 % of control
- Area of Intimal Thickening ([2]; vehicle 0.129 ± 0.013, P < 0.05 vs. control): 0.087 ± 0.011 mm^2
- inhibition at 1 µg/mL (Balb/c3T3 fibroblasts; Mus musculus, BALB/c3T3, 72 h, dipyridamole 1.0 μg/ml, three days, 5% fetal bovine serum): 0%
- inhibition at 5 µg/mL (Balb/c3T3 fibroblasts; Mus musculus, BALB/c3T3, 72 h, dipyridamole 5.0 μg/ml, three days, 5% fetal bovine serum): 55%
- inhibition at 10 µg/mL (Balb/c3T3 fibroblasts; Mus musculus, BALB/c3T3, 72 h, dipyridamole 10 μg/ml, three days, 5% fetal bovine serum): 72%
- inhibition at 20 µg/mL (Balb/c3T3 fibroblasts; Mus musculus, BALB/c3T3, 72 h, dipyridamole 20 μg/ml, three days, 5% fetal bovine serum): 86%
- inhibition at 40 µg/mL (Balb/c3T3 fibroblasts; Mus musculus, BALB/c3T3, 72 h, dipyridamole 40 μg/ml, three days, 5% fetal bovine serum): 95%
- inhibition of proliferation of cells of mesenchyme origin (Balb/c3T3 fibroblasts; fibroblasts): inhibits proliferation of cells of mesenchyme origin
- inhibition at 0.08 µg/mL ([3]; EGF (3 ng/ml)): 68%
- inhibition at 0.15 µg/mL ([3]; EGF (3 ng/ml)): 76%
- inhibition at 0.32 µg/mL ([3]; EGF (3 ng/ml)): 85%
- inhibition at 0.64 µg/mL ([3]; EGF (3 ng/ml)): 90%
- inhibition at 1.2 µg/mL ([3]; EGF (3 ng/ml)): 94%
- inhibition at 2.5 µg/mL ([3]; EGF (3 ng/ml)): 96%
- inhibition at 0.08 µg/mL ([3]; FGF (3 ng/ml)): 67%
- inhibition at 0.15 µg/mL ([3]; FGF (3 ng/ml)): 74%
- inhibition at 0.32 µg/mL ([3]; FGF (3 ng/ml)): 80%
- inhibition at 0.64 µg/mL ([3]; FGF (3 ng/ml)): 87%
- inhibition at 1.2 µg/mL ([3]; FGF (3 ng/ml)): 92%
- inhibition at 2.5 µg/mL ([3]; FGF (3 ng/ml)): 93%
- inhibition at 0.08 µg/mL ([3]; PDGF (20 ng/ml)): 64%
- inhibition at 0.15 µg/mL ([3]; PDGF (20 ng/ml)): 71%
- inhibition at 0.32 µg/mL ([3]; PDGF (20 ng/ml)): 82%
- inhibition at 0.64 µg/mL ([3]; PDGF (20 ng/ml)): 89%
- inhibition at 1.2 µg/mL ([3]; PDGF (20 ng/ml)): 93%
- inhibition at 2.5 µg/mL ([3]; PDGF (20 ng/ml)): 96%
- inhibition of smooth muscle cell proliferation induced by growth factors ([3]; PDGF, FGF, and EGF): inhibits cell proliferation induced by PDGF, FGF, and EGF
- effect in treating or preventing vascular restenosis (vascular restenosis): ineffective; also recorded: ineffective in treating or preventing vascular restenosis in patients
